Tests used:
Assay in all cases: Drug combination assay (CellTiter-Glo cell viability)
Format in all cases: cell-based
Settings in all cases: six days, 96-wells
[1] = test system: H358 parental cells (KRAS G12C)
Description: (§1) Cells were seeded in either 96-well or 384-well plates 16 h before treatment at a density of 1000 cells per well. Then, cells were treated with varying concentrations of compound(s) as indicated in FIGS. 1-8 (384-wells) and FIGS. 10-105 (96-wells), either a single agent or in combination, for six days. The relative number of viable cells was estimated using CellTiter-Glo Luminescent Cell Viability Assay (Promega, G7573). Total luminescence was detected on a Wallac Multilabel Reader (Perkin-Elmer).

[2] = test system: H2030 cells (KRAS G12C)
Description: as §1

[3] = test system: H358 resistant cells (KRAS G12C)
Description: as §1

[4] = combination with Compound K1 (a KRAS inhibitor)
[5] = combination with Compound K2 (a KRAS inhibitor)
[6] = combination with Compound K3 (a KRAS inhibitor)
[7] = combination with Compound K4 (a KRAS inhibitor)

Row | Structure (SMILES) | % inhibition of H358 parental cells (KRAS G12C) [1, 4] | % inhibition of H358 parental cells (KRAS G12C) [1, 5] | % inhibition of H358 parental cells (KRAS G12C) [1, 6] | % inhibition of H358 parental cells (KRAS G12C) [1, 7] | % inhibition of H2030 cells (KRAS G12C) [2, 4] | % inhibition of H2030 cells (KRAS G12C) [2, 5] | % inhibition of H2030 cells (KRAS G12C) [2, 6] | % inhibition of H2030 cells (KRAS G12C) [2, 7] | combination effect on cell viability (qualitative) [3, 4] | combination effect on cell viability (qualitative) [3, 5] | combination effect on cell viability (qualitative) [3, 6] | combination effect on cell viability (qualitative) [3, 7]
1 | Cc1nccnc1-c1nn2c(=O)cc(-c3ccc(C4CCCCC4)cc3)[nH]c2c1C(=O)N1C[C@H](CF)[C@@H]1C (racemic) [Compound T9, 5-(4-cyclohexylphenyl)-2-(3-methylpyrazin-2-yl)-3-[rac-(2S,3S)-3-(fluoromethyl)-2-methyl-azetidine-1-carbonyl]-4H-pyrazolo[1,5-a]pyrimidin-7-one] | sensitizes cells resistant to Compound K1 | sensitizes cells resistant to Compound K2 | sensitizes cells resistant to Compound K3 | sensitizes cells resistant to Compound K4 | sensitizes cells resistant to Compound K1 | sensitizes cells resistant to Compound K2 | sensitizes cells resistant to Compound K3 | sensitizes cells resistant to Compound K4 | sensitizes cells resistant to Compound K1 | sensitizes cells resistant to Compound K2 | sensitizes cells resistant to Compound K3 | sensitizes cells resistant to Compound K4
2 | COc1cnc(C(=O)NCc2cccc(CC(=O)N(C)CCOCCOCCOCCOCCOc3ccc4c(c3)C(=O)N(C3CCC(=O)NC3=O)C4=O)c2)cc1/C=C/[C@H]1CC[C@H](C(F)(F)F)CC1 (stereo partly drawn) [Compound T5, N-[[3-[2-[2-[2-[2-[2-[2-[2-(2,6-dioxo-3-piperidyl)-1,3-dioxo-isoindolin-5-yl]oxyethoxy]ethoxy]ethoxy]ethoxy]ethyl-methyl-amino]-2-oxo-ethyl]phenyl]methyl]-5-methoxy-4-[rac-(E)-2-[4-(trifluoromethyl)cyclohexyl]vinyl]pyridine-2-carboxamide] | sensitizes cells resistant to Compound K1 | sensitizes cells resistant to Compound K2 | sensitizes cells resistant to Compound K3 | sensitizes cells resistant to Compound K4 | sensitizes cells resistant to Compound K1 | sensitizes cells resistant to Compound K2 | sensitizes cells resistant to Compound K3 | sensitizes cells resistant to Compound K4 | sensitizes cells resistant to Compound K1 | sensitizes cells resistant to Compound K2 | sensitizes cells resistant to Compound K3 | sensitizes cells resistant to Compound K4
3 | C[C@@H](NC(=O)c1ccc2c(Oc3ccc(C(F)(F)F)cc3)cccc2c1)c1cccc(N)n1 [Compound T6, N-[(1R)-1-(6-amino-2-pyridyl)ethyl]-5-[4-(trifluoromethyl)phenoxy]naphthalene-2-carboxamide] | sensitizes cells resistant to Compound K1 | sensitizes cells resistant to Compound K2 | sensitizes cells resistant to Compound K3 | sensitizes cells resistant to Compound K4 | sensitizes cells resistant to Compound K1 | sensitizes cells resistant to Compound K2 | sensitizes cells resistant to Compound K3 | sensitizes cells resistant to Compound K4 | sensitizes cells resistant to Compound K1 | sensitizes cells resistant to Compound K2 | sensitizes cells resistant to Compound K3 | sensitizes cells resistant to Compound K4
4 | C[C@H](NC(=O)c1ccc2c(-c3ccc(C(F)(F)F)cc3)cccc2c1)c1ccccn1 [Compound T7, N-[(1S)-1-(2-pyridyl)ethyl]-5-[4-(trifluoromethyl)phenyl]naphthalene-2-carboxamide] | sensitizes cells resistant to Compound K1 | sensitizes cells resistant to Compound K2 | sensitizes cells resistant to Compound K3 | sensitizes cells resistant to Compound K4 | sensitizes cells resistant to Compound K1 | sensitizes cells resistant to Compound K2 | sensitizes cells resistant to Compound K3 | sensitizes cells resistant to Compound K4 | sensitizes cells resistant to Compound K1 | sensitizes cells resistant to Compound K2 | sensitizes cells resistant to Compound K3 | sensitizes cells resistant to Compound K4
5 | CNS(=O)(=O)c1ccc(Nc2ccc(C(F)(F)F)cc2)c(-c2cn(C)cn2)c1 [Compound T8, N-methyl-3-(1-methylimidazol-4-yl)-4-[4-(trifluoromethyl)anilino]benzenesulfonamide] | sensitizes cells resistant to Compound K1 | sensitizes cells resistant to Compound K2 | sensitizes cells resistant to Compound K3 | sensitizes cells resistant to Compound K4 | sensitizes cells resistant to Compound K1 | sensitizes cells resistant to Compound K2 | sensitizes cells resistant to Compound K3 | sensitizes cells resistant to Compound K4 | sensitizes cells resistant to Compound K1 | sensitizes cells resistant to Compound K2 | sensitizes cells resistant to Compound K3 | sensitizes cells resistant to Compound K4
